Reference: patent US20240115530A1, “ADMINISTRATION OF BAIBA TO INCREASE BENEFIT OF LOSING WEIGHT OF INTERMITTENT FASTING” (NANJING NUTRABUILDING BIO-TECH CO., LTD., priority 2021, published 2024)

Experiments:
Type in all cases: in vivo, C57BL/6 male mice
[1] = Blood lipid biochemistry (TG, TCHO, LDL, VLDL) in HFD-fed obese mice; details: 150 mg/kg daily per oral, end of study, with or without EODF, vs same regimen without L-BAIBA
From the text: (§1) Each study group consisted of ten animals, and treatment details of the individual study groups are given below: • Group A (GA, NC): Normal mice, maintained on normal diet for 11 weeks, receiving neither EODF nor L-BAIBA treatment. • Group B1 (GB1, HFD): Obese mice, maintained on high fat diet (HFD) for 11 weeks, receiving neither EODF nor L-BAIBA treatment. • Group B2 (GB2, HFD+EODF): Obese mice, maintained on HFD for 11 weeks, receiving only EODF and no L-BAIBA treatment. • Group B3 (GB3, HFD+BAIBA): Obese mice, maintained on HFD for 11 weeks, receiving only L-BAIBA treatment and no EODF. • Group B4 (GB4, HFD+EODF+BAIBA): Obese mice, maintained on HFD for 11 weeks, receiving L-BAIBA treatment and EODF combination.
(§2) L-BAIBA was administered daily via per oral route according to a level of 150 mg/kg body weight. Animals not receiving L-BAIBA were given orally with ultrapure water.
Intermittent fasting model: HFD fed male mice in groups at 8 weeks of age were randomly assigned into either ad libitum, or every-other-day-fasting (EODF) groups on a per cage basis. All cage bedding was changed to paper bedding for the duration of the model. Mice in the EODF group had total deprivation of food and ad libitum access to water from 1200 h-1200 h on alternate days with ad libitum food and water access. EODF cages were changed upon induction of fasting. Ad libitum control mice cages were changed every other day with fresh food provided.
50 C57BL/6 male mice aged about 8 weeks, are randomly assigned to five study groups (GA, GB1, GB2, GB3, GB4) of ten mice each (two cages, 1 cage, n=5 per condition).
The same procedures were conducted as above-discussed Example 1.
At the end of the study, blood was collected from all test groups and a various clinical parameter were determined: triglyceride (TG), total cholesterol (TCHO), low-density lipoprotein (LDL) and very low-density lipoprotein (VLDL). FIG. 2a-2d are the results of TG, TCHO, LDL and VLDL in all test groups, respectively. […] This effect persists for as long as the test protocol is continued.

[2] = Blood glucose and oral glucose tolerance test (OGTT) in HFD-fed obese mice; details: 150 mg/kg daily per oral, vs same regimen without L-BAIBA
From the text: as §1, §2
(§3) Intermittent fasting model: HFD fed male mice in groups at 8 weeks of age were randomly assigned into either ad libitum, or every-other-day-fasting (EODF) groups on a per cage basis. All cage bedding was changed to paper bedding for the duration of the model. […]
Glucose levels in blood were measured weekly (week 12-19) on the starting day of every week before the day's EODF and L-BAIBA dosing activities. […]

[3] = Serum insulin and leptin by ELISA in HFD-fed obese mice; details: 150 mg/kg daily per oral, end of treatment period, with or without EODF, vs same regimen without L-BAIBA
From the text: as §1, §2, §3
Serum levels of insulin and leptin were determined at the end of the treatment period by standard ELISA methods. […]

[4] = Body weight reduction in HFD-fed obese mice with or without EODF; details: 150 mg/kg daily per oral, 8-week treatment, vs same regimen without L-BAIBA
Procedure: 50 C57BL/6 male mice aged about 8 weeks, are randomly assigned to five study groups (GA, GB1, GB2, GB3, GB4) of ten mice each (two cages, 1 cage, n=5 per condition). Each animal's body weight is measured by a weight scale and recorded.
The total experimental time is 19 weeks, including two periods: an eleven-week induction period and a subsequent eight-week treatment period.
as §1
L-BAIBA was administered daily via per oral route according to a level of 150 mg/kg body weight. […]
Each mouse's body weight is measured weekly during the study at 1200 h. FIG. 1 is the average body weight of mice in all test groups (Body weight were recorded from the beginning of the experiment). […]

C[C@@H](CN)C(=O)O [L-BAIBA, L-β-aminoisobutyric acid]
low-density lipoprotein (LDL) level in blood [1]: lower levels
total cholesterol (TCHO) level in blood [1]: lower levels
triglyceride (TG) level in blood [1]: lower levels
very low-density lipoprotein (VLDL) level in blood [1]: lower levels
glucose tolerance (OGTT) ([2]; OGTT after the treatment period, with or without EODF): better glucose tolerance
blood glucose level ([2]; measured weekly week 12-19, with or without EODF): greater reduction in blood glucose level
insulin resistance (serum insulin) [3]: improved
leptin resistance (serum leptin) [3]: improved leptin resistance
body weight [4]: greater reduction in body weight
